This is an account of results in US12577247B2 (BUGWORKS RESEARCH, INC., priority 2021, dated 2026).

The structures appear in SMILES notation. pEC50: −log10 of the molar value. Read-outs that look alike come from different tables or passages of the source. A value given as a limit tells only on which side of the number the result lay.

In data set [1] the test system is human Peripheral blood mononuclear cells (PBMCs). As to the kind of experiment: Cytokine restoration assay in human PBMCs (IL-2, TNF-α) under NECA. It counts as cell-based. The settings on record: PBMC, NECA 5 μM, anti CD3/28 Dynabeads, 48 hours. From the text:
The ability of the invention compounds disclosed herein to restore the cytokines (IL-2 and TNF-α) release under adenosine agonist (NECA) environment evaluated using human Peripheral blood mononuclear cells (PBMCs). Peripheral blood was collected from healthy adult individuals in vacutainer tube. Peripheral blood mononuclear cells (PBMCs) were isolated via density gradient centrifugation, which uses Ficoll (Histopaque buffer) combined with short, low-speed centrifugation, to separate different cell populations. Diluted defibrinated blood was layered on a Ficoll and centrifuged at 1800 rpm for 20 minutes at 22° C. Differential migration of cells during centrifugation results in the formation of layers containing different cell types. The bottom layer contains erythrocytes. Remaining cells (i.e., lymphocytes, monocytes, and platelets) that are not dense enough to penetrate the Ficoll media layers (densities of 1.0770 g/ml), forms a buffy coat at the interface between the upper plasma layer and the Ficoll media layer. After carefully collected the buffy coat excess of platelets, Ficoll and plasma were removed by washing it with isotonic sterile phosphate buffered saline (PBS) and resulting cell pellet was resuspended in RPMI media with 5% FBS an P/S. The isolated PBMCs were allowed to be conditioned for an hour at 37° C. in a CO2 incubator. These cells were subsequently used for specific downstream assay. Isolated PBMC (3×10^5 cells/200 μl) were plated in 96 well microtiter plate in RPMI media with 5% FBS in presence of 100 units of penicillin plus 100 μg/ml streptomycin. NECA was added at a final concentration of 5 μM, control wells were maintained without NECA suppression (i.e., no NECA control). The assay plates were incubated at 37° C. for 4 hours in a CO2 incubator. Various concentrations of test compounds were added into respective wells in triplicates. Pre-washed anti CD3/28 Dynabeads (2.5 μL) was added for CD4 and CD8 + T-cell stimulation (to obtain a bead-to-cell ratio of 1:1). The assay plate was incubated at 37° C. in 5% CO2 and 20% ambient O2 maximum for 48 hours. At the end of 48 hours, the activated PBMC were harvested, and culture supernatants were used directly for further analysis. Forty-eight hours post treatment, 15 μL of cell-free supernatant was collected and assayed for secreted IL2 using the human Interleukin 2 (hIL2)—LANCE Ultra Detection Kit (Perkin Elmer). Similarly, level of soluble Tumor Necrosis Factor alpha (TNFα) was determined using human TNFα LANCE Ultra Detection Kit (Perkin Elmer). T-FRET signal was measured with Tecan spark multimode plate reader. Data was analyzed by graph-pad prism9. EC50 s of the compounds of Formula (I) in restoration of cytokine release under adenosine agonist from the human PBMCS are presented in Table 2

Data set [2] in a line: Plasma protein binding, equilibrium dialysis, human. It counts as in vitro ADME. As to conditions: plasma (10% plasma, extrapolated to 100% plasma), 18 hours at 37° C. The method, then: Protein binding is measured using the equilibrium dialysis technique. Compound is added to 10% plasma giving a concentration of 10 μM and dialysed with isotonic buffer for 18 hours at 37° C. The plasma and buffer solutions are analysed using generic LC UV/MS and the first apparent binding constant for the compound derived. The binding constant is then used to determine the % free in 100% plasma
The percentage of plasma bound/unbound fraction preparation was calculated as follows
[formula] [formula] where, • Tc=Total plasma concentration was determined by the calculated concentration on the plasma side of the chamber • Fc=[…] was determined by the calculated concentration on the buffer side of the chamber • To=Total compound concentration determined before analysis.

Data set [3] can be described thus: Metabolic stability and intrinsic clearance in human hepatocytes (with IVIVE). The format is in vitro ADME. The settings on record: Human hepatocytes. The method, then: (§1) The metabolic stability was expressed as the percentage of parent remaining is calculated from the peak area ratio of NCE remaining after incubation (tx) compared to the time zero (t0) incubation. The percentage of parent test compound remaining at each time point was calculated by comparing the peak area ratio of test compound after incubation (tx) with peak area of time zero (t0) incubation. Similarly, half-life (t½) was calculated using following equation:
(§2) [formula] The intrinsic clearance (Clint) was calculated using the following equations:
(§3) [formula] Scaling factors to represent […] million cells/gm liver and liver/kg body wt.

The next data set concerns Human hepatocytes. The description is as above. It counts as in vitro ADME. The settings on record: Human; for Predicted CLh: IVIVE from hepatocyte CLint; for Hepatocyte Clint: Table 6 (IVIVE). The method, then: as §1, §2, §3
[4] abbreviates: read-out: IL-2 restoration EC50.
Setting [5] is: read-out: TNF-α restoration EC50.

Usually fraction unbound stands for free concentration divided by total concentration. In the case of `CCc1c(C)nn2c(N)c(C#N)c(NCCc3ccn(C4(CO)CC4)n3)nc12` [Example 39, 7-amino-3-ethyl-5-((2-(1-(1-(hydroxymethyl)cyclopropyl)-1H-pyrazol-3-yl)ethyl)amino)-2-methylpyrazolo[1,5-a] pyrimidine-6-carbonitrile], the results for the pEC50 in data set [1] (setting [4]) and in data set [1] (setting [5]) were 8.38 and 8.64, respectively. Besides, in data set [2], the fraction unbound at 18 h, 10 µM is 0.0913. Besides, the Hepatocyte Clint in data set [3] is less than 8.2 µL/min/1e6 cells; with Human hepatocytes it was less than 8.2 μl/min/10^6. In the data set on Human hepatocytes, the “Predicted CLh” value is on record as 12 mL/min/kg.

As for `CCc1c(C)nn2c(N)c(C#N)c(NCCc3ccn(C4COCC4CO)n3)nc12` (single isomer, unassigned; (-)) [Example 122b, (−)-7-amino-3-ethyl-5-((2-(1-(4-(hydroxymethyl)tetrahydrofuran-3-yl)-1H-pyrazol-3-yl)ethyl)amino)-2-methyl pyrazolo[1,5-a]pyrimidine-6-carbonitrile], the pEC50 in data set [1] (setting [4]) was 8.85; in data set [1] (setting [5]), 8.92. Moreover, the fraction unbound at 18 h, 10 µM in data set [2] is 0.117. The results for the Hepatocyte Clint (in data set [3]; with Human hepatocytes) were less than 4.1 µL/min/1e6 cells and less than 4.1 μl/min/10^6, respectively. For the same compound, in the data set with Human hepatocytes, the “Predicted CLh” value is listed as 8.6 mL/min/kg.

Take `Cc1cccc(CCNc2nc3c(C)c(C)nn3c(N)c2C#N)n1` [Example 13, 7-amino-5-((2-(6-methylpyridin-2-yl)ethyl)amino)-2,3-dimethylpyrazolo[1,5-a]pyrimidine-6-carbonitrile]: the pEC50 was 8.26 in data set [1] (setting [4]) and 8.28 in data set [1] (setting [5]). Moreover, the fraction unbound at 18 h, 10 µM in data set [2] was 0.05. The Hepatocyte Clint in data set [3] is less than 8.2 µL/min/1e6 cells; with Human hepatocytes it was less than 8.2 μl/min/10^6. Further, the “Predicted CLh” value in the data set with Human hepatocytes is 12 mL/min/kg.
